Measured values as given in ChEMBL document CHEMBL2331295, “Characterization of a selective CaMKII peptide inhibitor” (Eur J Med Chem, 2013).
Activity calls are given as the source filed them. The calls are words filed in the database; no cut-off is given here.

Key:
H9c2 = assay: Inhibition of serum-induced endogenous CAMK2 activation in […] H9C2 cells at 5 uM after 30 mins relative to control; assay type: cell-based
[1] = target: T1, Calcium/calmodulin-dependent protein kinase type IV (Homo sapiens) (UniProt Q16566); assay: Inhibition of CAMK4 (unknown origin) using gamma peptide as substrate assessed as incorporation of 32P at 5 uM after 30 mins by scintillation counting analysis in presence of [gamma32P]ATP relative to control
T1 sequence (whole entry): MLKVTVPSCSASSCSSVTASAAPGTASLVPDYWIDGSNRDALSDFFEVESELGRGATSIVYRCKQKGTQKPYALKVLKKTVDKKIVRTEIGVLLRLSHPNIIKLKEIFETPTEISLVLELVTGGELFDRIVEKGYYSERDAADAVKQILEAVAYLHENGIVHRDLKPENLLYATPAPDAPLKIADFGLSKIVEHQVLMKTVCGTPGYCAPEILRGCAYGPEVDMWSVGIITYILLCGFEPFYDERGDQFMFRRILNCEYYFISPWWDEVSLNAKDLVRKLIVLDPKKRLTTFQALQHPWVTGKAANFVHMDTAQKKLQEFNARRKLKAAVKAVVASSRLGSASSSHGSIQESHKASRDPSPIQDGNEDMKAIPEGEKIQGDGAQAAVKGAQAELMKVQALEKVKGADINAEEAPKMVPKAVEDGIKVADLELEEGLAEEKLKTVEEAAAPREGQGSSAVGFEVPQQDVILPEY

[2] = target: Calcium/calmodulin-dependent protein kinase type 1 (Homo sapiens) (UniProt Q14012); assay: Inhibition of CAMK1 (unknown origin) using ADR1G as substrate assessed as incorporation of 32P at 5 uM after 30 mins by scintillation counting analysis in presence of [gamma32P]ATP relative to control
Calcium/calmodulin-dependent protein kinase type 1 (Homo sapiens), sequence (Q14012 whole entry, looked up): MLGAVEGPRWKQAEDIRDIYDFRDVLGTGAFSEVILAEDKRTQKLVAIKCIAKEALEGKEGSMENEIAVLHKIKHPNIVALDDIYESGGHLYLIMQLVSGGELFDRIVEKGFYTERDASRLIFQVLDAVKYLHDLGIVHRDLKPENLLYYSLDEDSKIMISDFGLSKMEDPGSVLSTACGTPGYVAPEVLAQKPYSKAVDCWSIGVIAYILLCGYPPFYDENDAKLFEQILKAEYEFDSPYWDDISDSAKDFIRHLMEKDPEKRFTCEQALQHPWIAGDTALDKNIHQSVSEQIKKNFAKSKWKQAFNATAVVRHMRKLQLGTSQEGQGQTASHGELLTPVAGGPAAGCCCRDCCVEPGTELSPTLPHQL

[3] = target: Calcium/calmodulin-dependent protein kinase type II subunit alpha (Homo sapiens) (UniProt Q9UQM7); assay: Inhibition of GFP-tagged CAMK2alpha (unknown origin) expressed in african green monkey Vero cells using syntide2 as substrate assessed as incorporation of 32P at 5 uM after 30 mins by scintillation counting analysis in presence of [gamma32P]ATP relative to control; assay type: cell-based
Calcium/calmodulin-dependent protein kinase type II subunit alpha (Homo sapiens), sequence (Q9UQM7 whole entry): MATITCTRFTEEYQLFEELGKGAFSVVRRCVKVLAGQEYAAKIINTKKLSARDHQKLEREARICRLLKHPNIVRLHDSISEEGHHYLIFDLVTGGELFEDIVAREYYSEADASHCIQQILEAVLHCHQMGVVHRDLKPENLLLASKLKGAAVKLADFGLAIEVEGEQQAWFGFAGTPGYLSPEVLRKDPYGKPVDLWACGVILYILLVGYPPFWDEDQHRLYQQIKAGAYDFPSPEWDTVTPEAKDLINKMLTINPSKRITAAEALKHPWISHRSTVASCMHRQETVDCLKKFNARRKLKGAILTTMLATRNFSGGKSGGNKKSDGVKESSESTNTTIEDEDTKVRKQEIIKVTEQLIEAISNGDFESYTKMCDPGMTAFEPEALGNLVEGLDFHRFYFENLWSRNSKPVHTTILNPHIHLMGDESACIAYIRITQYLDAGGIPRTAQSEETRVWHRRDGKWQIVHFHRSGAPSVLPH

inhibition [1] | inhibition [2] | inhibition [3] | Substance | inhibition (H9c2)
inactive | 6.1% | – | H-RQIKIWFQNRRMKWKKGGCKRPPKLGQIGRAKRVVI-OH | 52%
– | – | < 70% | H-KRPPKLGQIGRSKRVVI-OH | –
